Measurements as given in PubChem BioAssay AID2060500 (Molecular Pharmacology Branch, DTP, NCI, 2025).
Where “and” joins values, the source holds several entries; their conditions need not be identical. Equal values may be shown once.

System: 596521-263-R-J1-PDC complex spheroids, viability % of control
Assay: Anticancer human tumor 596521-263-R-J1-PDC patient-derived soft tissue sarcoma cell line growth inhibition [GQUAD]
Conditions: for viability, T/C: stronger effect = lower value
Source text: DNA G-quadruplex Stabilizer Agents in Combinations in Complex Spheroids
A high-throughput screen of multi-cell type tumor spheroids was designed to identify active combinations of DNA G-quadruplex stabilizer agents and targeted small molecules. Complex spheroids include a stromal component modeled by human endothelial cells (HUVEC) and fibroblasts modeled by human mesenchymal stem cells (MSCs). The concentration ranges selected for each drug and investigational agent were based upon clinically achievable concentrations if the clinical Cmax of the agent was known.
Compounds. The drugs and investigational agents: pidnarulex (CX-5461; NSC782164), APTO-253 (NSC789042), BRACO-19 (NSC847499), peposertib (NSC802822), ceralasertib (NSC780249), elimusertib (NSC800525), camonsertib (NSC841442), AZD-1390 (NSC803789), olaparib (NSC753686), talazoparib (NSC767125), ART-558 (NSC835418), sotorasib (NSC818433), MRTX-1133 (NSC836407), SN-38 (NSC673596), topotecan (NSC609699), etoposide (NSC141540), doxorubicin (NSC123127), gemcitabine (NSC613327), 5-fluorouracil (NSC19893), paclitaxel (NSC125973), vemurafenib (NSC761431), panobinostat (NSC761190), R-306465 (JNJ-16241199; NSC773264), adavosertib (NSC754352), TP-3654 (NSC805149), carboplatin (NSC241240), KSQ-4279 (NSC840948), and staurosporine (NSC755774) were obtained from the National Cancer Institute (NCI) Developmental Therapeutics Program Chemical Repository (34). The FDA-approved anticancer drug set is available from the NCI Developmental Therapeutics Program. […] The stock solutions were prepared in dimethyl sulfoxide (DMSO, Sigma-Aldrich, St. Louis, MO, cat. D2650) at 800-fold the tested concentration and stored at -70 degrees C prior to their use. All drugs and investigational agents were tested over a range starting from a high concentration at or near the clinical Cmax and decreasing in half-log increments. If the clinical Cmax for an agent had not been determined, the highest concentration tested was 10 microM.
2.3 Cell Culture. All cells were maintained in an incubator at 37 degrees C and 5% CO2 with 95% humidity. The PDC lines were cultured according to standard operating procedures established by the NCI PDMR. All PDCs were thawed and cultured in Matrigel-coated flasks prepared with a working solution of 1X Ham's F-12 nutrient mix, without supplementation (Invitrogen, cat. 11765054), 100 U/mL penicillin-streptomycin (Invitrogen, cat. 15140122), and 2.5% Matrigel (Corning Inc., cat. 354248) for the first three passages. The 857933-349-R-J2-PDC line was cultured in 6C/Colon 1B media, which includes advanced DMEM/F-12 (Thermo Fisher Scientific, cat. 12634028), 10 mM HEPES (Thermo Fisher Scientific, cat. 15630080), 1X GlutaMAX supplement (Thermo Fisher Scientific, cat. 35050061), 0.1 mg/mL primocin (InvivoGen, cat. ant-pm-2), 10% defined fetal bovine serum, heat inactivated (HyClone Laboratories Inc., cat. SH30070.03HI), 50% L-WRN conditioned media (ATCC, cat. CRL-3276), 1.25 mM N-Acetyl-L-cysteine (Sigma-Aldrich, cat. A9165), 10 mM nicotinamide (Sigma-Aldrich, cat. N0636), 1X B-27 supplement (Thermo Fisher Scientific, cat. 17504044), 1X N-2 supplement (Thermo Fisher Scientific, cat. 17502048), 10 microM Y-27632 dihydrochloride (Tocris Bioscience, cat. 1254), and 50 ng/mL human EGF recombinant protein (Thermo Fisher Scientific, cat. PHG0311). The 485176-168-R4-J1-PDC line was cultured in Panc media, which includes all 6C/Colon 1B media components plus 100 ng/mL human FGF-10 (Thermo Fisher Scientific, cat. 100-26), 500 nM SB-431542 (Selleckchem, cat. S1067), and gastrin (Tocris, cat. 3006).
[…]
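Note: spheroids exposed to drugs for 7 days before viability reading.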

Compound	viability, T/C (compound 0.0316 µM)	viability, T/C (compound 0.1 µM)	viability, T/C (compound 0.316 µM)	viability, T/C (compound 1 µM)	viability, T/C (compound 3.16 µM)	viability, T/C (compound 10 µM)	IC50 (curve of compound)	IC50 (compound alone, run of 04/16/2024)	IC50 (compound alone, run of 04/22/2024)	viability, T/C (compound 0.000999 µM)	viability, T/C (compound 0.00316 µM)	viability, T/C (compound 0.00999 µM)	viability, T/C (compound 0.0999 µM)
COc1cc(C2c3cc4c(cc3C(OC3OC5COC(C)OC5C(O)C3O)C3COC(=O)C23)OCO4)cc(OC)c1O (stereo unspecified)	107% and 103% (2×)	87% and 88.9% and 88.6%	87.5% and 92% and 89.4%	60.7% and 62.7% and 57.5%	58.4% and 54.6% and 68.8%	43.3% and 45.5% and 49.7%	5.48 µM and 4.38 µM and > 10 µM						
COc1ccc([C@@H](O)c2cc(-c3ncnc4cc(N5CCOCC5)ccc34)c(F)cc2Cl)nn1	102% and 104% and 98.4%	96.8% and 88% and 99.3%	89.7% and 79.9% and 93.3%	77.9% and 79.6% and 88.5%	66.9% and 63.6% and 80%	51% and 47.4% and 51.9%	> 10 µM and 9.83 µM						
COc1cccc2c1C(=O)c1c(O)c3c(c(O)c1C2=O)CC(O)(C(=O)CO)CC3OC1CC(N)C(O)C(C)O1 (stereo unspecified)	93% and 105% and 97.4%	74.8% and 74.5% and 88.6%	63.1% and 58% and 65.8%	58.1% and 54.2% and 56.5%	29.4% and 28.7% and 29.6%	4.46% and 3.41% and 4.53%	1.06 µM and 0.723 µM and 1.13 µM						
COc1ncnc(C2CC2)c1-c1ncc2cnn(Cc3ccc(-c4nc(C(F)(F)F)cn4C(C)C)cc3)c2n1	98.6% and 108% and 92.8%	105% and 94.8% and 99.3%	97.8% and 85.6% and 98.5%	100% and 65.5% and 81.5%	99.2% and 28.8% and 94.3%		> 10 µM and 1.58 µM						
Cc1[nH]c2ccc(F)cc2c1-c1nc2c3cccnc3c3ncccc3c2[nH]1	102% [middle of 12 runs]	102% [middle of 12 runs]	101% [middle of 12 runs]	101% [middle of 12 runs]	93.6% [middle of 12 runs]	85.7% [middle of 12 runs]		> 10 µM	> 10 µM				
Cc1[nH]c2ccccc2c1CCNCc1ccc(/C=C/C(=O)NO)cc1	96.4% and 54% and 57.8%						> 0.316 µM and 0.0337 µM and 0.0499 µM			101% and 103% and 95.3%	90.3% and 84.7% and 95.6%	96.9% and 70% and 80.2%	101% and 27.6% and 35.7%
Cc1cccc(N(C)C(=O)C2C(O)CCN2c2nc(C)cc(C(F)(F)F)c2C#N)c1 (stereo unspecified)	113% and 94.7% and 106%	103% and 98.2% and 94.6%	95.1% and 106% and 98.1%	101% and 98.4% and 112%	89.7% and 108% and 114%	91.4% and 96.3% and 101%	> 10 µM						
Cc1cnc(CNC(=O)c2c(=O)c3ccc(N4CCCN(C)CC4)nc3n3c2sc2ccccc23)cn1	99% [middle of 12 runs]	93.1% [middle of 12 runs]	80.5% [middle of 12 runs]	68% [middle of 12 runs]	56.4% [middle of 12 runs]	47.9% [middle of 12 runs]							
Cn1ncnc1[C@H]1c2n[nH]c(=O)c3cc(F)cc(c23)N[C@@H]1c1ccc(F)cc1	94.5% and 86.7% and 93.1%		92.8% and 88% and 76.6%				> 0.316 µM			92.8% and 91% and 93.5%	93.2% and 98.2% and 100%	93.6% and 94% and 101%	89.3% and 80.8% and 106%
Nc1ccn(C2OC(CO)C(O)C2(F)F)c(=O)n1 (stereo unspecified)	53.5% and 48% and 59.9%	35.8% and 49.4% and 43.2%	45% and 45.2% and 42.6%	42.5% and 40.8% and 52%	42.5% and 38.6% and 49.9%	33.4% and 33.3% and 40.1%	< 0.0316 µM and 0.0354 µM and 0.168 µM						
O=C(NO)c1cnc(N2CCN(S(=O)(=O)c3ccc4ccccc4c3)CC2)nc1	39.6% and 75% and 74.9%	25.7% and 56.3% and 57.3%	26.8% and 8.85% and 14%				< 0.0316 µM and 0.117 µM and 0.121 µM						
O=C(c1cc(Cc2n[nH]c(=O)c3ccccc23)ccc1F)N1CCN(C(=O)C2CC2)CC1	102% and 96.8% and 103%	95.1% and 97.1% and 87.4%	87.9% and 88.9% and 100%	89.7% and 89.3% and 95.3%	92.5% and 79.6% and 86.6%	68.4% and 67.2% and 66.9%	> 10 µM						
O=c1[nH]cc(F)c(=O)[nH]1	95.6% and 102% and 106%	105% and 100% and 94.9%	105% (2×) and 107%	98.4% and 114% and 99.3%	94.5% and 97.5% and 97.7%	97.2% and 97.8% and 93.8%	> 10 µM						
